Columns and labels:
[1] = test system: HCT116 colorectal carcinoma cell line; experiment: MTS antiproliferative assay, HCT116; format: cell-based, human
Protocol: The cytotoxic potential of the complexes was evaluated by assessing their viability using the 3-(4,5-dimethylthiazol-2-yl)-5-(3-carboxymethoxyphenyl)-2-(4-sulfophenyl)-2H tetrazolium, inner salt (MTS) colorimetric assay in three tumor cell lines—ovarian carcinoma, A2780, colorectal carcinoma, HCT116, and colorectal carcinoma resistant to doxorubicin, HCT116-Dox and in normal human primary dermal fibroblasts (Figure 1 and Figure S7).
Normal dermal human fibroblasts, colorectal carcinoma cell line HCT116 and ovarian carcinoma cell line A2780 were acquired from ATCC (Manassas, VA, USA). […] Fibroblasts and HCT116 cells were cultured in Dulbecco’s modified Eagle medium (DMEM, Thermo Fisher Scientific) and A2780 cell line was cultured on Roswell Park Memorial institute 1640 (RPMI-1640, Thermo Fisher Scientific). Both media were supplemented with 10% (v/v) fetal bovine serum (FBS, Thermo Fisher Scientific) and a mixture of 100 U/mL penicillin and 100 mg/mL streptomycin. The supplemented media are referred to from this point on as DMEM or RPMI for simplicity. […] All experiments underwent at 37 °C, 5% (v/v) CO2 and 99% (v/v) humidity in the dark.
Cells were seeded in a 96-well plate in a density of 7500 cells/well, and after 24 h was submitted to a concentration range between 0.1–50 µM of complexes JHOR10 and JHOR11. DMSO with a 0.1% (v/v) concentration was used as vector control and cisplatin was used as positive control in all replicates. After 48 h incubation, cellular viability was inferred with the Cell Titer 96® Aqueous One solution cell proliferation assay (Promega, Madison, WI, USA) according to the manufacturer’s instructions and procedures previously described [18, 40]. The absorbance of the produced Formazan was quantified with a Tecan microplate reader, Infinite M200 (Tecan, Mannedorf, Switzerland) and the analysis of the dose–response curves to determine the relative IC50 was performed with GraphPad Prism 8.2.1 software (GraphPad Software, La Jolla, CA, USA).

[2] = test system: normal human dermal fibroblasts; experiment: Wound scratch assay; format: cell-based; conditions: 24 h, IC50 of the complex, versus vector control
Protocol: Cell migration is an essential process for tumor progression, being one of the major events that leads to cancer metastasis. To determine if JHOR11 inhibits cell tumorigenicity, the cell migration ability was analyzed by the wound scratch assay. […] The measure of the wound scratch after 0 h and 24 h allows the determination of the migration ability of the cells.
For wound scratch assay normal human dermal fibroblasts were seeded on […] tissue plates in a cell density of 4 × 10^5 cells/plate and incubated at 37 °C, 5% (v/v), 99% (v/v) relative humidity until reach confluence. A sterile micropipette tip was then used to make a scratch on the confluent monolayer and medium was replaced by fresh medium supplemented with IC50 JHOR11 or 0.1% (v/v) DMSO, as vector control.

[3] = test system: HCT116 cells injected into zebrafish embryos; experiment: Zebrafish embryo xenograft assay; format: in vivo; conditions: 80 μM in embryo water from 1 dpi, read at 4 dpi
Protocol: HCT116 human colorectal cancer cell line was incubated in standard conditions (37 °C and 5% CO2) until a confluence of 80% was reached. Afterwards, the cells were concentrated and labelled with DiI and injected into the circulation (Duct of Cuvier) of 48 hpf zebrafish embryos to assay the proliferation in vivo of the cells exposed to JHOR11 (80 μM). JHOR11 was dissolved in the embryo water at 1 dpi (days post-injection) for the embryos to recover from the injection and the establishment of the cancer cells in the caudal hematopoietic tissue (CHT), and was maintained until the end of the experiment at 4 dpi. Imaging of the embryos was performed at 1 dpi and 4 dpi to quantify the fluorescence and area of the cells in the tail of the embryos, where cells invade and grow, and measure their proliferation over time to assess the inhibitory effect of JHOR11 over the cells. […]
The images were obtained with an AZ-100 Nikon fluorescence stereomicroscope at two different times ([…]) allowing in vivo monitoring of the proliferating HCT116 cells labelled within the zebrafish embryo. The analysis of the cell progression was carried out using Quantifish Software. This software analyzes each image by measuring its fluorescence above a manually set threshold that produces the integrated intensity of each image as the output. […]

[4] = test system: A2780 cells; experiment: Apoptosis, Annexin V-Alexa Fluor 488/propidium iodide double staining; format: cell-based, human; conditions: A2780, 48 h, IC50 of the complex
Protocol: To understand if the loss of cell viability of an A2780 cell incubated with JHOR11 is due to cell apoptosis, cells were incubated with the IC50 of the complex and then double-stained with Annexin V, conjugated with AlexaFluor 488 and with propidium iodide (PI) to discriminate between live cells (unstained), cells in initial apoptosis (green-stained cells), cells in late apoptosis (double-stained cells) and cells in necrosis (red-stained cells).
The double staining of the A2780 cells incubated with JHOR11 for apoptosis evaluation followed procedures previously described. Briefly, A2780 cells were seeded on 6-well plates in a density of 2 × 10^5 cells/well, and incubated for 48 h with IC50 JHOR11, 0.1% (v/v) DMSO as vector control, and 3.5 µM cisplatin as positive control. Cells were then detached from the wells and double stained using the dead cell apoptosis kits with Annexin V for flow cytometry (Thermo Fisher Scientific) according to manufacturer’s instructions. The percentage of live cells (unstained), cells in initial apoptosis (stained with annexin V-Alexa Fluor 488), cells in late apoptosis (double stained with annexin V-Alexa Fluor 488 and propidium iodide) or cells in necrosis (stained with propidium iodide) was quantified using an Attune acoustic focusing flow cytometer and respective software (Thermo Fisher Scientific).

[5] = test system: A2780 cells; experiment: Trypan blue exclusion method; format: cell-based, human; conditions: A2780, 48 h
Protocol: A2780 cells were exposed for 48 h to the IC50 of JHOR11, and to a concentration 10 times higher and 10 times lower the IC50, and the live (transparent) and dead (blue) cells that remained adherent or in the supernatant were counted (Figure 6). A2780 cells were also incubated with 0.1% (v/v) DMSO as a vector control, and 0.1 µM doxorubicin as positive control (Supplementary Information, Figure S8).
A2780 cells were seeded on a 24-well culture plate at a density of 37,500 cells/well. After 24 h to assure cell adherence, the medium was replaced by fresh RPMI supplemented with 0.1% (v/v) DMSO, 0.1 µM Doxorubicin or JHOR11 complex in three different concentrations: 1/10 IC50, IC50 or 10 × IC50. After 8 h, 24 h or 48 h incubation, the supernatant was removed and mixed with trypan blue (Thermo Fisher Scientific) to a final concentration 0.1% (w/v). In parallel, cells were detached from the well, centrifuged at 500× g and pellet was resuspended in 0.1% (w/v) Trypan blue. The number of viable cells and cells with compromised membrane (stained with blue) in both fractions were counted in a haemocytometer (Hirschmann, Eberstadt, Germany) and a CXX41 inverted microscope (Olympus, Tokyo, Japan).

Cc1ccc(C(C)C)cc1.F[P-](F)(F)(F)(F)F.O=C1C(=O)c2cccnc2-c2ncccc21.[Cl][Ru+] [JHOR11]
IC50 ([1]; 48 h incubation, MTS, read-out: Relative IC50, HCT116): 5.5 ± 0.3 µM
selective index in HCT116 ([1]; relative to fibroblasts): 8.1
percentage of regeneration of the wound scratch [2]: no significant differences
decrease of proliferation of HCT116 cells compared to control [3]: 45%
percentage of apoptotic cells [4]: 3%
cells in the supernatant at 1/10 IC50 (Trypan blue) ([5]; 1/10 IC50): exclusively live cells
cells in the supernatant with increasing concentration (Trypan blue) ([5]; 1/10 IC50, IC50, 10 × IC50): increased percentage of cells in the supernatant

— publication PMC9656482, “In Vitro and In Vivo Biological Activity of Ruthenium 1,10-Phenanthroline-5,6-dione Arene Complexes” (International Journal of Molecular Sciences, 2022)
